The target of series [1] is T1, Phenylethanolamine N-methyltransferase (Bos taurus, UniProt P10938).
T1 sequence (P10938 whole entry): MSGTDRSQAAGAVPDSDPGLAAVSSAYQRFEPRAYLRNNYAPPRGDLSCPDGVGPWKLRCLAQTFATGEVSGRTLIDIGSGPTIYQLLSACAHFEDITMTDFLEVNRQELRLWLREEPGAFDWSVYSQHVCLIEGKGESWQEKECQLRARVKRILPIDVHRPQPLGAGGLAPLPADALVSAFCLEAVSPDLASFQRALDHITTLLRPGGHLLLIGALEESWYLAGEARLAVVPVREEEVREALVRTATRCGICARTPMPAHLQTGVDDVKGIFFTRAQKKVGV
The experiment in a line: (§1) Inhibitory activity against phenylethanolamine N-methyl-transferase.

Substrate in series [2]: NCC(O)/C1=C/CC/C=C\CC1
Kind of series: (§2) Substrate activity against phenylethanolamine N-methyl-transferase was tested.

Substrate in series [3]: NCC(O)C1=C/C=C\C=C/C=C\1
The series is described as §2.

Substrate in series [4]: NCC(O)/C1=C/CCCCCC1
Described as §2.

Substrate in series [5]: NCC(O)C1CCCCC1
The series is described as §2.

Substrate in series [6]: NCC(O)C1CC=CCC1
Described as §2.

Substrate in series [7]: NCC(O)C1=C/CCCC/C=C\1
The description is as §2.

Substrate in series [8]: NCC(O)C1CCCCCCC1
The series is described as §2.

Compound in series [9]: NC[C@@H](O)c1ccccc1
Described as §1.

As usually defined, the IC50 is the point on the concentration scale where inhibition reaches its midpoint. A low value points to inhibition by little substance. In the case of `CCCCCC(O)CN` (stereo unspecified), the IC50 in [1] was determined as 314 µM. On the same count and under the same terms, next, `O=CC1CCCCCCCCCC1` [CYCLOUNDECANE CARBALDEHYDE]: 9 µM. On the same count and under the same terms, to `NCC(O)C1CCC1` (stereo unspecified) belongs more than 1000 µM. The same measure, in the same setting: to `CCCCC(C#N)O[Si](C)(C)C` (stereo unspecified) belongs 345 µM; to `CCCCCCCC(C#N)O[Si](C)(C)C` (stereo unspecified), 216 µM. Turning to `CCC(C)C(C)C=O` (stereo unspecified), the IC50 in series [1] amounted to 403 µM.

For `CCCCC=O` [PENTANAL], half-maximal inhibition in [1] (IC50) was put at 345 µM. `C[Si](C)(C)OC1(C#N)CCCC1` yielded an IC50 in [1] of more than 1000 µM. The same measure, in the same setting: next, `CCCCCC=O` [HEXANAL]: 314 µM; `O=CC1CCC1` [CYCLOBUTANE CARBALDEHYDE]: more than 1000 µM; `CCCCC(O)CN` (stereo unspecified): 345 µM. The same measure, in the same setting: to `NCC1(O)CCCCC1` belongs more than 1000 µM; to `NCC1(O)CCCCCCC1`, 72 µM; to `CC(C)CC=O`, 1000 µM. Still for that read-out and setting: to `CCCCCCC(C)(O)CN` (stereo unspecified) belongs 664 µM; to `O=C1CCCCC1` [CYCLOHEXANONE], more than 1000 µM. Regarding `O=CC1CCCCCC1` [CYCLOHEPTANE CARBALDEHYDE], the IC50 in [1] was 8 µM.

As to `NCC(O)C1=C/C=C\C=C/C=C\1` (stereo unspecified), half-maximal inhibition in series [1] (IC50) was put at 760 µM. Same read-out and setting: next, `CCC(C)C(C)C(C#N)O[Si](C)(C)C` (stereo unspecified): 403 µM; `CCCCCC(C#N)O[Si](C)(C)C` (stereo unspecified): 314 µM. Still for that read-out and setting: next, `NCC(O)C1CCCCCCC1` (stereo unspecified): 7 µM. For `NCC(O)C1CCCC1` (stereo unspecified), the midpoint of inhibition in series [1], the IC50, lay at 446 µM. Same read-out and setting: next, `NCC1(O)CCCC1`: more than 1000 µM; `NCC(O)C1=C/CCCC/C=C\1` (stereo unspecified): 57 µM; `O=C1CCCC1` [CYCLOPENTANONE]: more than 1000 µM. The same measure, in the same setting: next, `C[Si](C)(C)OC(C#N)C1CCCC1` (stereo unspecified): 446 µM; `C[Si](C)(C)OC(C#N)C12CC3CC(CC(C3)C1)C2` (stereo unspecified): 195 µM; `O=CC12CC3CC(CC(C3)C1)C2`: 195 µM. On the same count and under the same terms, next, `CCCCCCC(O)CN` (stereo unspecified): 109 µM; `CCCCCCC(C)(C#N)O[Si](C)(C)C` (stereo unspecified): 664 µM; `CCCCCCC(C)=O`: 664 µM. Turning to `O=CC1CCCC1` [CYCLOPENTANECARBALDEHYDE], the IC50 in series [1] is 446 µM. Same read-out and setting: to `NCC(O)C1CCCCCCCCCC1` (stereo unspecified) belongs 9 µM.

For the molecule `C[Si](C)(C)OC(C#N)C1CCCCCCCC1` (stereo unspecified), the IC50 in [1] was determined as 6 µM. Still for that read-out and setting: next, `CCCCCCCC=O` [OCTANAL]: 216 µM; `C[Si](C)(C)OC(C#N)C1CCCCCCCCCC1` (stereo unspecified): 9 µM.

Take `CCCCCC(C)=O`: in series [1], inhibition was half-maximal at 669 µM (IC50). In turn, `NCC(O)C1CCCCC1` (stereo unspecified) had an IC50 in series [1] of 14 µM. On the same count and under the same terms, next, `NCC(O)/C1=C/CC/C=C\CC1` (stereo unspecified): 89 µM; `CCCCCCCC(O)CN` (stereo unspecified): 216 µM. Still for that read-out and setting: to `CCC(C=O)CC` belongs 545 µM; to `C[Si](C)(C)OC1(C#N)CCCCCCCC1`, 17 µM. On to `C[Si](C)(C)OC(C#N)C1CCC1` (stereo unspecified), for which the IC50 in series [1] was more than 1000 µM. Same read-out and setting: to `NCC1(O)CCCCCCCCCC1` belongs 8 µM.

The molecule `CCC(CC)C(C#N)O[Si](C)(C)C` (stereo unspecified) gave an IC50 in series [1] of 545 µM.

With `CCC(CC)C(O)CN` (stereo unspecified), the midpoint of inhibition in series [1], the IC50, lay at 545 µM. Same read-out and setting: to `NCC(O)C1CC=CCC1` (stereo unspecified) belongs 52 µM; to `CC(C)CC(C#N)O[Si](C)(C)C` (stereo unspecified), 1000 µM.

In series [1], `O=C1CCCCCCCC1` [CYCLONONANONE] yielded a half-inhibitory concentration (IC50) of 17 µM.

In turn, `NCC1(O)CCCCCC1` displayed an IC50 in [1] of 510 µM. Molecule `C[Si](C)(C)OC1(C#N)CCCCC1` yielded an IC50 in series [1] of more than 1000 µM. On the same count and under the same terms, next, `C[Si](C)(C)OC(C#N)C1CCCCCC1` (stereo unspecified): 8 µM; `NCC(O)C12CC3CC(CC(C3)C1)C2` (stereo unspecified): 195 µM; `C[Si](C)(C)OC1(C#N)CCCCCC1`: 510 µM. Same read-out and setting: next, `O=C1CCCCCCC1` [CYCLOOCTANONE]: 72 µM; `C[Si](C)(C)OC1(C#N)CCCCCCC1`: 72 µM. Same read-out and setting: to `CCCCCCC=O` [HEPTANAL] belongs 109 µM. As to `NCC(O)C1CCCCCC1` (stereo unspecified), the IC50 in [1] was 8 µM. As to `CCCCCC(C)(O)CN` (stereo unspecified), the IC50 in series [1] was 669 µM.

In [1], `NCC(O)C1CCCCCCCC1` (stereo unspecified) had an IC50 of 6 µM.

`O=CC1CCCCCCCC1` [CYCLONONANECARBALDEHYDE] gave an IC50 in series [1] of 6 µM. On the same count and under the same terms, next, `NCC(O)/C1=C/CCCCCC1` (stereo unspecified): 38 µM; `NCC1(O)CCCCCCCC1`: 17 µM; `CCCCCC(C)(C#N)O[Si](C)(C)C` (stereo unspecified): 669 µM. Still for that read-out and setting: next, `CCCCCCC(C#N)O[Si](C)(C)C` (stereo unspecified): 109 µM. In turn, `O=C1CCCCCC1` [CYCLOHEPTANONE] yielded an IC50 in [1] of 510 µM.

`CCC(C)C(C)C(O)CN` (stereo unspecified) showed an IC50 in series [1] of 403 µM.

On to `CC(C)CC(O)CN` (stereo unspecified), for which the IC50 in series [1] was 1000 µM.

B1: Phenylethanolamine N-methyltransferase (Bos taurus), P10938 (protein)
chain: T1 sequence (P10938 whole entry)
One may read the Km as the concentration of substrate that gives half-maximal velocity. As for B1, the Km came to 155 µM in series [2]; 430 µM in series [3]; 110 µM in series [4]; 40 µM in [5]; 57 µM in series [6]; 128 µM in [7]. The results for the Km in series [8] and in series [9] were 26 µM and 136 µM, respectively.

Source of the values: ChEMBL document CHEMBL1121874, “Importance of the aromatic ring in adrenergic amines. 5. Nonaromatic analogues of phenylethanolamine as inhibitors of phenylethanolamine N-methyltransferase: role of hydrophobic and steric interactions” (J Med Chem, 1981).
